Measurements published in PubChem BioAssay (NCI).
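These data come from cells grown in 96-well plates and exposed to compound for 48 hours at five concentrations. Definition used: TGI = concentration required for complete inhibition of growth.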

Assays:
Assay in all cases: inhibition of tumour cell growth, NCI panel, 48 h
KM12 colon = system: KM12 colon
SK-OV-3 ovarian = system: SK-OV-3 ovarian
SNB-19 CNS = system: SNB-19 CNS
PC-3 prostate = system: PC-3 prostate
SNB-75 CNS = system: SNB-75 CNS
UACC-257 melanoma = system: UACC-257 melanoma
NCI/ADR-RES ovarian = system: NCI/ADR-RES ovarian
COLO 205 colon = system: COLO 205 colon
OVCAR-5 ovarian = system: OVCAR-5 ovarian
HOP-92 NSCLC = system: HOP-92 NSCLC
HS 578T breast = system: HS 578T breast
UO-31 renal = system: UO-31 renal
SF-268 CNS = system: SF-268 CNS
A549 NSCLC = system: A549 NSCLC
UACC-62 melanoma = system: UACC-62 melanoma
MCF7 breast = system: MCF7 breast
MDA-MB-435 = system: MDA-MB-435
A498 renal = system: A498 renal
LOX IMVI melanoma = system: LOX IMVI melanoma
HL-60(TB) leukemia = system: HL-60(TB) leukemia
DU-145 prostate = system: DU-145 prostate
NCI-H23 lung = system: NCI-H23 lung
HCT-15 colon = system: HCT-15 colon
NCI-H460 lung = system: NCI-H460 lung
K-562 leukemia = system: K-562 leukemia
OVCAR-8 ovarian = system: OVCAR-8 ovarian
T-47D breast = system: T-47D breast
NCI-H226 lung = system: NCI-H226 lung
HCC-2998 colon = system: HCC-2998 colon
MDA-MB-231 breast = system: MDA-MB-231 breast
CCRF-CEM leukemia = system: CCRF-CEM leukemia
SK-MEL-2 melanoma = system: SK-MEL-2 melanoma
786-0 renal = system: 786-0 renal
IGROV1 ovarian = system: IGROV1 ovarian
M14 melanoma = system: M14 melanoma
SR leukemia = system: SR leukemia
HCT-116 colon = system: HCT-116 colon
SF-295 CNS = system: SF-295 CNS
ACHN renal = system: ACHN renal
SW-620 colon = system: SW-620 colon
CAKI-1 renal = system: CAKI-1 renal
MOLT-4 leukemia = system: MOLT-4 leukemia
EKVX NSCLC = system: EKVX NSCLC
SK-MEL-28 melanoma = system: SK-MEL-28 melanoma
RPMI-8226 leukemia = system: RPMI-8226 leukemia
SK-MEL-5 melanoma = system: SK-MEL-5 melanoma
OVCAR-4 ovarian = system: OVCAR-4 ovarian
U251 CNS = system: U251 CNS
SN12C renal = system: SN12C renal
OVCAR-3 ovarian = system: OVCAR-3 ovarian
RXF 393 renal = system: RXF 393 renal
HT29 colon = system: HT29 colon
MDA-N = system: MDA-N
SF-539 CNS = system: SF-539 CNS
BT-549 breast = system: BT-549 breast
MALME-3M melanoma = system: MALME-3M melanoma
NCI-H522 lung = system: NCI-H522 lung
HOP-62 NSCLC = system: HOP-62 NSCLC
TK-10 renal = system: TK-10 renal

## Cc1ccc(OCC2OC(n3cnc4c(Cl)nc(Nc5cc(Cl)cc(Cl)c5)nc43)CC2Oc2ccc(C)cc2)cc1 (stereo not drawn)
KM12 colon
  TGI: > 100 µM
SK-OV-3 ovarian
  TGI: > 100 µM
SNB-19 CNS
  TGI: > 100 µM
PC-3 prostate
  TGI: > 100 µM
SNB-75 CNS
  TGI: > 100 µM
UACC-257 melanoma
  TGI: > 100 µM
NCI/ADR-RES ovarian
  TGI: > 100 µM
COLO 205 colon
  TGI: > 100 µM
OVCAR-5 ovarian
  TGI: > 100 µM
HOP-92 NSCLC
  TGI: > 100 µM
HS 578T breast
  TGI: > 100 µM
UO-31 renal
  TGI: > 100 µM
SF-268 CNS
  TGI: > 100 µM
A549 NSCLC
  TGI: > 100 µM
UACC-62 melanoma
  TGI: > 100 µM
MCF7 breast
  TGI: > 100 µM
MDA-MB-435
  TGI: > 100 µM
A498 renal
  TGI: > 100 µM
LOX IMVI melanoma
  TGI: > 100 µM
HL-60(TB) leukemia
  TGI: > 100 µM
DU-145 prostate
  TGI: > 100 µM
NCI-H23 lung
  TGI: > 100 µM
HCT-15 colon
  TGI: > 100 µM
NCI-H460 lung
  TGI: > 100 µM
K-562 leukemia
  TGI: > 100 µM
OVCAR-8 ovarian
  TGI: > 100 µM
T-47D breast
  TGI: > 100 µM
NCI-H226 lung
  TGI: > 100 µM
HCC-2998 colon
  TGI: > 100 µM
MDA-MB-231 breast
  TGI: > 100 µM
CCRF-CEM leukemia
  TGI: > 100 µM
SK-MEL-2 melanoma
  TGI: > 100 µM
786-0 renal
  TGI: > 100 µM
IGROV1 ovarian
  TGI: > 100 µM
M14 melanoma
  TGI: > 100 µM
SR leukemia
  TGI: > 100 µM
HCT-116 colon
  TGI: > 100 µM
SF-295 CNS
  TGI: > 100 µM
ACHN renal
  TGI: > 100 µM
SW-620 colon
  TGI: > 100 µM
CAKI-1 renal
  TGI: > 100 µM
MOLT-4 leukemia
  TGI: > 100 µM
EKVX NSCLC
  TGI: > 100 µM
SK-MEL-28 melanoma
  TGI: > 100 µM
RPMI-8226 leukemia
  TGI: > 100 µM
SK-MEL-5 melanoma
  TGI: > 100 µM
OVCAR-4 ovarian
  TGI: 59.2 µM
U251 CNS
  TGI: > 100 µM
SN12C renal
  TGI: > 100 µM
OVCAR-3 ovarian
  TGI: > 100 µM
RXF 393 renal
  TGI: > 100 µM
HT29 colon
  TGI: > 100 µM
MDA-N
  TGI: > 100 µM
SF-539 CNS
  TGI: > 100 µM
BT-549 breast
  TGI: > 100 µM
MALME-3M melanoma
  TGI: > 100 µM
NCI-H522 lung
  TGI: > 100 µM

## COc1ccc(CCCCNCc2cccc(CNCCCCc3ccc(OC)cc3)c2)cc1
KM12 colon
  TGI: 3.69 µM
SK-OV-3 ovarian
  TGI: 4.02 µM
SNB-19 CNS
  TGI: 3.29 µM
PC-3 prostate
  TGI: 3.55 µM
SNB-75 CNS
  TGI: 3.38 µM
UACC-257 melanoma
  TGI: > 19.7 µM
NCI/ADR-RES ovarian
  TGI: 3.19 µM
COLO 205 colon
  TGI: 5.22 µM
HOP-62 NSCLC
  TGI: 4.99 µM
OVCAR-5 ovarian
  TGI: 4.33 µM
HOP-92 NSCLC
  TGI: 2.91 µM
HS 578T breast
  TGI: 3.27 µM
UO-31 renal
  TGI: 2.68 µM
SF-268 CNS
  TGI: 3.35 µM
A549 NSCLC
  TGI: 4.86 µM
UACC-62 melanoma
  TGI: 3.55 µM
MCF7 breast
  TGI: 3.06 µM
MDA-MB-435
  TGI: 3.63 µM
LOX IMVI melanoma
  TGI: 3.23 µM
HL-60(TB) leukemia
  TGI: 3.98 µM
DU-145 prostate
  TGI: 3.54 µM
NCI-H23 lung
  TGI: 3.37 µM
HCT-15 colon
  TGI: 3.55 µM
NCI-H460 lung
  TGI: > 19.7 µM
OVCAR-8 ovarian
  TGI: 3.23 µM
T-47D breast
  TGI: 4.35 µM
NCI-H226 lung
  TGI: 2.33 µM
HCC-2998 colon
  TGI: 0.922 µM
MDA-MB-231 breast
  TGI: 3.6 µM
CCRF-CEM leukemia
  TGI: 4.47 µM
SK-MEL-2 melanoma
  TGI: 3.53 µM
786-0 renal
  TGI: 4.51 µM
IGROV1 ovarian
  TGI: 3.32 µM
M14 melanoma
  TGI: 3.5 µM
SR leukemia
  TGI: > 100 µM
HCT-116 colon
  TGI: 3.88 µM
SF-295 CNS
  TGI: 3.77 µM
ACHN renal
  TGI: 3.47 µM
SW-620 colon
  TGI: 3.28 µM
TK-10 renal
  TGI: 5.02 µM
CAKI-1 renal
  TGI: 3.63 µM
MOLT-4 leukemia
  TGI: 6.86 µM
EKVX NSCLC
  TGI: 3.42 µM
SK-MEL-28 melanoma
  TGI: 3.73 µM
RPMI-8226 leukemia
  TGI: > 100 µM
SK-MEL-5 melanoma
  TGI: 3.25 µM
OVCAR-4 ovarian
  TGI: 3.98 µM
U251 CNS
  TGI: 3.71 µM
SN12C renal
  TGI: 3.64 µM
OVCAR-3 ovarian
  TGI: 3.37 µM
RXF 393 renal
  TGI: 3.28 µM
HT29 colon
  TGI: 3.16 µM
MDA-N
  TGI: 4.25 µM
BT-549 breast
  TGI: 3.36 µM
MALME-3M melanoma
  TGI: 3.6 µM
NCI-H522 lung
  TGI: 3.5 µM
